The results in this text go back to PubChem BioAssay AID1259411 (Chemical Carcinogenesis Research Information System (CCRIS), 2018).

The source made the active and inactive calls. How the calls were made is not given here.

The data set relates to rodent carcinogenicity bioassays, tumor incidence. The experiment in a line: CCRIS carcinogenicity studies. A digest of the protocol:
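Archive of carcinogenicity, mutagenicity, tumor promotion and tumor inhibition results drawn from journals, NCI reports and other sources, expert-reviewed; covers 1985-2011 and is no longer updated.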

On to `O=C(O)CC(O)(CC(=O)O)C(=O)O`, for which the carcinogen call by setting is: (Species: MOUSE, Strain/Sex: BC3F1/FEMALE, Route: IP INJECTION ONCE, Dose: 100, 500, 1000, 5000 BQ (STUDY DURATION: LIFESPAN), Dose: 100, 500, 1000, 5000 BQ (STUDY DURATION: LIFESPAN), Tumor Site: Type of Lesion: BONE: OSTEOSARCOMAS) “active; positive”; (Species: MOUSE, Strain/Sex: C3H/FEMALE, Route: IP INJECTION ONCE, Dose: 100, 500, 1000, 5000 BQ (STUDY DURATION: LIFESPAN), Dose: 100, 500, 1000, 5000 BQ (STUDY DURATION: LIFESPAN), Tumor Site: Type of Lesion: BONE: OSTEOSARCOMAS) “active; positive”; (Species: MOUSE, Strain/Sex: C57BL/6/FEMALE, Route: IP INJECTION ONCE, Dose: 100, 500, 1000, 5000 BQ (STUDY DURATION: LIFESPAN), Dose: 100, 500, 1000, 5000 BQ (STUDY DURATION: LIFESPAN), Tumor Site: Type of Lesion: BONE: OSTEOSARCOMAS) “active; positive”.
With `ClCOCCl`, the carcinogen call reads like this: (Species: HUMAN, Route: INHALATION, Tumor Site: Type of Lesion: LUNG: OAT CELL CARCINOMA) “active; positive”; (Species: MOUSE, Strain/Sex: ICR/FEMALE, Route: DERMAL, Tumor Site: Type of Lesion: INTEGUMENTARY SYSTEM (SKIN): PAPILLOMA, SQUAMOUS CELL CARCINOMA) “active; positive”; (Species: MOUSE, Strain/Sex: ICR/MALE,FEMALE, Route: SUBCUTANEOUS, Dose: 12.5 µL/KG IN PEANUT OIL ONCE, Tumor Site: Type of Lesion: LUNG: ADENOMA) “active; positive”; (Species: MOUSE, Strain/Sex: ICR/MALE, Route: INHALATION, Dose: 0, 10, 100 PPB 6 HR/D, 5 D/WK FOR 6 MO (STUDY DURATION: 24 MO), Dose: 0, 10, 100 PPB 6 HR/D, 5 D/WK FOR 6 MO (STUDY DURATION: 24 MO), Tumor Site: Type of Lesion: LUNG: ADENOMA OR ADENOCARCINOMA) “active; positive”; (Species: MOUSE, Strain/Sex: STRAIN-A, Route: INHALATION, Dose: 0.005 MG/L 6 HR/D, 5 D/WK FOR A TOTAL OF 82 D OVER 27 WK, Tumor Site: Type of Lesion: LUNG: ADENOMA) “active; positive”; (Species: RAT, Strain/Sex: SPRAGUE-DAWLEY/FEMALE, Route: SUBCUTANEOUS, Dose: 3 MG IN 0.1 ML NUJOL 1/WK FOR 100 D THEN 1 MG 1/WK OR 3/MO FOR 200 D, Tumor Site: Type of Lesion: INJECTION SITE: FIBROSARCOMA) “active; positive”. The carcinogen call is “active; positive” (Species: RAT, Strain/Sex: SPRAGUE-DAWLEY/MALE, Route: INHALATION, Dose: 0, 1, 10, 100 PPB 6 HR/D, 5 D/WK FOR 6 MO (STUDY DURATION: 19-28 MO), Dose: 0, 1, 10, 100 PPB 6 HR/D, 5 D/WK FOR 6 MO (STUDY DURATION: 19-28 MO), Tumor Site: Type of Lesion: NASAL CAVITY: ESTHESIONEUROEPITHELIOMA) and “active; positive” (Species: RAT, Strain/Sex: SPRAGUE-DAWLEY, Route: INHALATION, Dose: 0.5 MG/M3 FOR 101 EXPOSURES, Tumor Site: Type of Lesion: LUNG: SQUAMOUS CELL CARCINOMA, NASAL CAVITY: ESTHESIONEUROEPITHELIOMA).
For `CCCCC(=O)O[C@H]1CC[C@H]2[C@@H]3CCc4cc(O)ccc4[C@H]3CC[C@]12C`, the carcinogen call (Species: RAT, Strain/Sex: STRAIN-CD/MALE, Route: SUBCUTANEOUS, Dose: 0, 1 MG IN CASTOR OIL 1/4 WK FOR LIFE (STUDY DURATION: LIFE), Tumor Site: Type of Lesion: MAMMARY GLAND: TUMOR) is “active; positive”.
Take `CCN=[N+]([O-])CC`: the carcinogen call is, setting by setting: (Species: RAT, Route: ORAL, Tumor Site: Type of Lesion: LIVER: HEMANGIOENDOTHELIOMA) “active; positive”; (Species: RAT, Route: SUBCUTANEOUS, Tumor Site: Type of Lesion: MAMMARY GLAND, BRAIN (OLFACTORY BULB): NEUROBLASTOMA, BRAIN: GLIOMA HEMATOPOIETIC SYSTEM (LEUKEMIA), Tumor Site: Type of Lesion: MAMMARY GLAND, BRAIN (OLFACTORY BULB): NEUROBLASTOMA, BRAIN: GLIOMA HEMATOPOIETIC SYSTEM (LEUKEMIA)) “active; positive”; (Species: RAT, Strain/Sex: F344/MALE, Route: ORAL, Dose: 0, 14, 55 MG/ML IN A NEUTRAL DEIONIZED DRINKING WATER SOLUTION 5 D/WK FOR 30 WK (TOTAL DOSE 42; 132 MG) (STUDY DURATION:, Dose: 0, 14, 55 MG/ML IN A NEUTRAL DEIONIZED DRINKING WATER SOLUTION 5 D/WK FOR 30 WK (TOTAL DOSE 42; 132 MG) (STUDY DURATION:, Tumor Site: Type of Lesion: LIVER: CARCINOMA, HEMANGIOSARCOMA, ESOPHAGUS: TUMOR, NASAL CAVITY: SQUAMOUS CELL CARCINOMA, ADENOCARCINOMA, Tumor Site: Type of Lesion: LIVER: CARCINOMA, HEMANGIOSARCOMA, ESOPHAGUS: TUMOR, NASAL CAVITY: SQUAMOUS CELL CARCINOMA, ADENOCARCINOMA) “active; positive”.
On to `CO[C@H]1C[C@]2(C)[C@@H](O)CC[C@H]2[C@@H]2CCc3cc(O)ccc3[C@H]21`, for which the carcinogen call (Species: HAMSTER, Strain/Sex: SYRIAN/MALE, Route: SUBCUTANEOUS IMPLANT, Dose: 0, 20 MG IN PELLETS IMPLANTED EVERY 2.5 MO FOR 9 MO (STUDY DURATION: 9 MO), Tumor Site: Type of Lesion: KIDNEY: TUMOR) is “active; positive”.
Turning to `CCCCCCOc1cc2c(c3ccc4ccccc4c13)CCC2=O`, the carcinogen call (Species: MOUSE, Strain/Sex: TO/MALE, FEMALE, Route: DERMAL, Dose: 0, 50 UG (10 µL OF A 0.5% W/V TOLUENE SOLUTION) 2/WK FOR 70 WK (STUDY DURATION: 70 WK)) is “inactive; negative”.
In the case of `ClC1C(Cl)C(Cl)C(Cl)C(Cl)C1Cl` (stereo unspecified), the carcinogen call by setting is: (Species: MOUSE, Strain/Sex: B6C3F1/FEMALE, Route: ORAL, Dose: 0, 80, 160 PPM IN DIET FOR 80 WK (STUDY DURATION: 90-91 WK), Dose: 0, 80, 160 PPM IN DIET FOR 80 WK (STUDY DURATION: 90-91 WK)) “inactive; negative”; (Species: MOUSE, Strain/Sex: CF-1/MALE,FEMALE, Route: ORAL, Dose: 200 MG/KG IN DIET, Tumor Site: Type of Lesion: LIVER: BENIGN TUMOR OR MALIGNANT TUMOR) “active; positive”; (Species: MOUSE, Strain/Sex: CF-1/MALE,FEMALE, Route: ORAL, Dose: 400 MG/KG IN DIET, Tumor Site: Type of Lesion: LIVER: BENIGN TUMOR OR MALIGNANT TUMOR) “active; positive”; (Species: MOUSE, Strain/Sex: DD/MALE, Route: ORAL, Dose: 0, 6.6, 66, 660 PPM IN BASAL DIET UNTIL SACRIFICE AT 24 WK (STUDY DURATION: 24 WK), Dose: 0, 6.6, 66, 660 PPM IN BASAL DIET UNTIL SACRIFICE AT 24 WK (STUDY DURATION: 24 WK), Tumor Site: Type of Lesion: LIVER: HEPATOMA) “active; positive”; (Species: MOUSE, Strain/Sex: MALE,FEMALE, Route: ORAL, Tumor Site: Type of Lesion: LIVER: BENIGN TUMOR OR MALIGNANT TUMOR) “active; positive”; (Species: RAT, Strain/Sex: OSBORNE-MENDEL/FEMALE, Route: ORAL, Dose: 0, 135, 270 PPM TWA, IN DIET FOR 80 WK (STUDY DURATION: 108-110 WK), Dose: 0, 135, 270 PPM TWA, IN DIET FOR 80 WK (STUDY DURATION: 108-110 WK)) “inactive; negative”. Further, the carcinogen call is “inactive; negative” (Species: RAT, Strain/Sex: OSBORNE-MENDEL/MALE, Route: ORAL, Dose: 0, 236, 472 PPM TWA, IN DIET FOR 80 WK (STUDY DURATION: 109-110 WK), Dose: 0, 236, 472 PPM TWA, IN DIET FOR 80 WK (STUDY DURATION: 109-110 WK)); “inactive; negative” (Species: Rat, Strain/Sex: Wistar/Female (50/Group), Route: Oral, Dose: 0, 0.06, 0.57, 5.6, 23.1 mg/kg/day of 99.5-99.7% lindane in diet for 18 mo, study duration 18 mo, Dose: 0, 0.06, 0.57, 5.6, 23.1 mg/kg/day of 99.5-99.7% lindane in diet for 18 mo, study duration 18 mo); “inactive; negative” (Species: Rat, Strain/Sex: Wistar/Male (50/Group), Route: Oral, Dose: 0, 0.05, 0.45, 4.5, 18.7 mg/kg/day of 99.5-99.7% lindane in diet for 18 mo, study duration 18 mo, Dose: 0, 0.05, 0.45, 4.5, 18.7 mg/kg/day of 99.5-99.7% lindane in diet for 18 mo, study duration 18 mo).
